Test system: Human dermal papilla cells (HDPCs)
Test: Activation of hair dermal papilla cell proliferation (CCK8 assay, absorbance at 450 nm)
Format: cell-based
Settings: serum-free DMEM, peptide at 0.1 μM, 1 μM and 10 μM, 72 hours
Experimental: Human dermal papilla cells (HDPCs) were attached to a 96-well plate at 2,000 cells per well, and then cultured using DMEM medium (Sigma Aldrich) containing 10% FBS and 1% penicillin/streptomycin (P/S; Sigma Aldrich) for 24 hours, the medium was then exchanged with serum-free DMEM, and diluted samples were treated with a GPK, GPS, GPA, GQK, or PO peptide at a concentration of each of 0.1 μM, 1 μM, and 10 μM, for 72 hours, and then treated with a CCK8 reagent for 1 hour to measure the absorbance at 450 nm using a microplate reader (TECAN), and the results are shown in FIGS. 1 to 5 (FIG. 1: GPK, FIG. 2: GPS, FIG. 3: GPA, FIG. 4: GQK, and FIG. 5: PO). As a positive control (PC), a 5% fetal bovine serum (FBS) treated group was used.

Row | Substance | cell proliferation compared to the untreated control
1 | Gly-Pro-Ser [GPS] | significantly increased
2 | Pro-Hyp [PO] | significantly increased
3 | Gly-Gln-Lys [GQK] | significantly increased
4 | Gly-Pro-Lys [GPK] | significantly increased
5 | Gly-Pro-Ala [GPA] | significantly increased

— patent publication US20250339489A1, “COMPOSITION FOR SUPPRESSING HAIR LOSS OR PROMOTING HAIR GROWTH CONTAINING PEPTIDE” (AMOREPACIFIC CORPORATION, priority 2024, published 2025)
